Source: article PMC7178833, “Preparation, carbonic anhydrase enzyme inhibition and antioxidant activity of novel 7-amino-3,4-dihydroquinolin-2(1H)-one derivatives incorporating mono or dipeptide moiety” (Journal of Enzyme Inhibition and Medicinal Chemistry, 2020)

Columns and labels:
hCA II = hCA II (Homo sapiens, UniProt P00918); experiment: stopped flow CO2 hydrase assay, hCA II; type: biochemical; settings: mean from three different assays, read-out: Ki hCAII
Procedure: (§1) An Applied Photophysics Stopped-Flow instrument has been used for assaying the CA catalysed CO2 hydration activity by using method of Khalifah[21]. Phenol red (at a concentration of 0.2 mM) has been used as indicator, working at the absorbance maximum of 557 nm, with 20 mM HEPES (pH 7.5) as buffer and 20 mM Na2SO4 (for maintaining constant the ionic strength), following the initial rates of the CA-catalysed CO2 hydration reaction for a period of 10–100 s. The CO2 concentrations ranged from 1.7 to 17 mM for the determination of the kinetic parameters and inhibition constants. […] The uncatalysed rates were determined in the same manner and subtracted from the total observed rates. Stock solutions of inhibitor (0.1 mM) were prepared in distilled–deionised water and dilutions up to 0.01 nM were done thereafter with the assay buffer. Inhibitor and enzyme solutions were pre-incubated together for 15 min at room temperature prior to assay, in order to allow for the formation of the E–I complex. The inhibition constants were obtained by non-linear least-square methods using PRISM (www.graphpad.com), and non-linear least squares methods, values representing the mean of at least three different determinations, as described earlier by us[22–27].

hCA IX = hCA IX (Homo sapiens, UniProt Q16790); experiment: stopped flow CO2 hydrase assay, hCA IX; type: biochemical; settings: mean from three different assays
Procedure: as §1

[1] = DPPH radical scavenging activity
Procedure: Antioxidant activity was determined based on the ability of the antioxidants to act as radical scavengers towards the stable free radical, 1,1-diphenyl-2-picrylhydrazyl (DPPH). As detailed by Yang et al[28], 1 ml of antioxidant solution (solubilised in ethanol) was added to 3 ml of a 0.1 mM ethanolic solution of DPPH. After 30 min at ambient temperature in darkness, absorbance readings were taken at 517 nm. Inhibition (%) was calculated using the equation [1 – (As−Ao)/Ab]×100 where As was the absorbance reading for samples containing antioxidant, Ao was the absorbance of the antioxidant in pure methanol and Ab corresponded to the absorbance of the DPPH solution.
The antioxidant activity of the compounds was determined based on the ability of the antioxidants to act as radical scavengers towards the stable free radical, 1,1-diphenyl-2-picrylhydrazyl (DPPH)[28].

hCA XII = hCA XII (Homo sapiens, UniProt O43570); experiment: stopped flow CO2 hydrase assay, hCA XII; type: biochemical; settings: mean from three different assays
Procedure: as §1

hCA I = hCA I (Homo sapiens, UniProt P00915); experiment: stopped flow CO2 hydrase assay, hCA I; type: biochemical; settings: mean from three different assays
Procedure: as §1

hCA I, sequence (P00915 whole entry): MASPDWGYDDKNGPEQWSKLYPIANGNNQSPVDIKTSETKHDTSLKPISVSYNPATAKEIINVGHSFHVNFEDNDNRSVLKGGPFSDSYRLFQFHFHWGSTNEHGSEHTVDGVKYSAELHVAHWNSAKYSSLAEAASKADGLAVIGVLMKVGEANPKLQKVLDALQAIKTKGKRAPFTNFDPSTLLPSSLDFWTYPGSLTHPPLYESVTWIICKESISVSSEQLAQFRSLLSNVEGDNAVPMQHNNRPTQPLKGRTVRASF
hCA XII, sequence (O43570 25-354): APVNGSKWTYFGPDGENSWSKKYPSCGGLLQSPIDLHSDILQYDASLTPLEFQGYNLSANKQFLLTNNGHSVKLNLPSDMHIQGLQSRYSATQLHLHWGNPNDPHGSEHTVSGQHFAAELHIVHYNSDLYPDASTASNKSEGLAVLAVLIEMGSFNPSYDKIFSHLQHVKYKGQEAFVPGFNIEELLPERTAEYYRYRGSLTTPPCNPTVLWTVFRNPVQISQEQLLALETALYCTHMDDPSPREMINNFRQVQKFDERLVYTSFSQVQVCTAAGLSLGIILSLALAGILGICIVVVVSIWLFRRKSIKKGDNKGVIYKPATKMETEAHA

Row | Molecule | Ki (hCA II) | melting point | Ki (hCA IX) | Antioxidant activity, % ([1]; 12.5 μg/ml) | Antioxidant activity, % ([1]; 25 μg/ml) | Antioxidant activity, % ([1]; 37.5 μg/ml) | Antioxidant activity, % ([1]; 62.5 μg/ml) | Antioxidant activity, % ([1]; 125 μg/ml) | Ki (hCA XII) | Ki (hCA I)
1 | C[C@@H](NC(=O)OC(C)(C)C)C(=O)Nc1ccc2c(c1)NC(=O)CC2 (stereo in doubt) [Compound 1, Tert-butyl (R)-(1-oxo-1-((2-oxo-1,2,3,4-tetrahydroquinolin-7-yl)amino)propan-2-yl)carbamate] | > 100 µM | 197 to 198 °C | 86.8 µM | 3.8% | 2.2% | 2.5% | 1.6% | 0.6% | 2 µM | > 100 µM
2 | CC(C)(C)OC(=O)N[C@H](Cc1ccccc1)C(=O)Nc1ccc2c(c1)NC(=O)CC2 (stereo in doubt) [Compound 2, Tert-butyl (R)-(1-oxo-1-((2-oxo-1,2,3,4-tetrahydroquinolin-7-yl)amino)-3-phenylpropan-2-yl)carbamate] | > 100 µM | 180 to 181 °C | 41.2 µM | 3.1% | 2.2% | 0.0% | 0.9% | 0.6% | 3.8 µM | > 100 µM
3 | CSCC[C@H](NC(=O)OC(C)(C)C)C(=O)Nc1ccc2c(c1)NC(=O)CC2 (stereo in doubt) [Compound 3, Tert-butyl (S)-(4-(methylthio)-1-oxo-1-((2-oxo-1,2,3,4-tetrahydroquinolin-7-yl)amino)butan-2-yl)carbamate] | > 100 µM | 171 to 172 °C | 42.6 µM | 0.9% | 0.3% |  |  |  | 8.5 µM | > 100 µM
4 | O=C1CCc2ccc(NC(=O)[C@H](CSc3ccccc3)NC(=O)OCc3ccccc3)cc2N1 (stereo in doubt) [Compound 4, Benzyl (R)-(1-oxo-1-((2-oxo-1,2,3,4-tetrahydroquinolin-7-yl)amino)-3-(phenylthio)propan-2-yl)carbamate] | > 100 µM | 150 to 151 °C | 65.4 µM | 2.5% | 1.6% | 0.9% | 2.2% | 1.6% | 5.7 µM | > 100 µM
5 | CSCC[C@H](NC(=O)OCc1ccccc1)C(=O)Nc1ccc2c(c1)NC(=O)CC2 (stereo in doubt) [Compound 5, Benzyl (S)-(4-(methylthio)-1-oxo-1-((2-oxo-1,2,3,4-tetrahydroquinolin-7-yl)amino)butan-2-yl)carbamate] | > 100 µM | 137 to 138 °C | 37.7 µM | 2.8% | 1.9% | 1.9% | 2.8% | 2.8% | 7 µM | > 100 µM
6 | COc1ccc(O)c(C(C)(C)C)c1 [BHA, reference compound] |  |  |  | 61.1% | 63.0% | 67.5% | 71.0% | 72.4% |  | 
7 | Cc1c(C)c2c(c(C)c1O)CC[C@@](C)(CCC[C@H](C)CCC[C@H](C)CCCC(C)C)O2 [α-Toc., α-tocopherol, reference compound] |  |  |  | 62.9% | 63.4% | 68.4% | 72.8% | 74.0% |  | 
8 | Benzyl ((R)-1-oxo-1-(((S)-1-oxo-1-((2-oxo-1,2,3,4-tetrahydroquinolin-6-yl)amino)-3-phenylpropan-2-yl)amino)-3-phenylpropan-2-yl)carbamate [Compound 6] | > 100 µM |  | 47.6 µM | 1.9% | 6.3% | 8.8% | 16.4% |  | 8.6 µM | > 100 µM
